Experimental data from patent US12195427B2, “MASP-2 inhibitors and methods of use” (priority 2018, dated 2025).

Molecular target: MASP-2 CCP2-SP (Homo sapiens (Human), UniProt O00187)
Experiment: MASP-2 co-crystallization, X-ray crystallography and structure analysis (H-bonds, van der Waals contacts);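 for Ligand-pharmacophore element distance, pharmacophore element C2: distance from averaged pharmacophore element to bound ligand; missing value means element absent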;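 for Ligand-pharmacophore element distance, pharmacophore element C3: distance from averaged pharmacophore element to bound ligand; missing value means element absent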;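 for Ligand-pharmacophore element distance, pharmacophore element C4: distance from averaged pharmacophore element to bound ligand; missing value means element absent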;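 for Ligand-pharmacophore element distance, pharmacophore element C5: distance from averaged pharmacophore element to bound ligand; missing value means element absent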
Parameters: van der Waals contact distance, MASP-2 HIS 483 atom CD2 / van der Waals contact distance, MASP-2 HIS 483 atom NE2 / van der Waals contact distance, SER 654 C to compound atom / van der Waals contact distance, SER 654 O to compound atom / van der Waals contact distance, TRP 655 C to compound atom / van der Waals contact distance, MASP-2 GLY 528 atom CA / van der Waals contact distance TRP 655 atom CZ3 / van der Waals contact distance TRP 655 atom N / van der Waals contact distance TRP 655 atom CE3 / van der Waals contact distance GLY 656 atom C / van der Waals contact distance GLY 656 atom CA / van der Waals contact distance GLY 656 atom O / van der Waals contact distance, MASP-2 TYR 607 atom CD1 / van der Waals contact distance, MASP-2 PRO 606 atom O / d(C3,CA1) / d(CA1,N1)2 / d(H4,O1) / d(H4,O2) / d(O1,O2) / d(CA1,O2) / d(CA6,O1) / d(CA6,O2) / d(CA1,C5) / d(O2,H3) / d(N2,C2) / d(CA5,N2) / d(N2,C4) / d(N2,C6) / d(N2,CA3) / d(N2,O3) / d(O4,H2): unit not given beside the values
Conditions: for Ligand-pharmacophore element distance, pharmacophore element C2 / Ligand-pharmacophore element distance, pharmacophore element C3 / Ligand-pharmacophore element distance, pharmacophore element C4 / Ligand-pharmacophore element distance, pharmacophore element C5 / Ligand-pharmacophore element distance, pharmacophore element C6 / Ligand-pharmacophore element distance, pharmacophore element C7 / Ligand-pharmacophore element distance, pharmacophore element CA1 / Ligand-pharmacophore element distance, pharmacophore element CA2 / Ligand-pharmacophore element distance, pharmacophore element CA3 / Ligand-pharmacophore element distance, pharmacophore element CA4 / Ligand-pharmacophore element distance, pharmacophore element CA5 / Ligand-pharmacophore element distance, pharmacophore element CA6: Table A4-1
In short: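 E. coli-expressed CCP2-SP (±6His); apo crystals soaked 1–2× in inhibitor-containing crystallization solution; optional 20% glycerol cryoprotection, LN2 flash-cool; synchrotron data at 1.0 wavelength; MR using 1Q3X portions, partial refinement; single pose analysed when several seen.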

[1] = Table A5-1 pharmacophore: distance between elements, S2/S1 region
[2] = Table A5-2 pharmacophore distance, S3/S4 region
[3] = Table A7-1, between pharmacophore elements of the bound compound
[4] = Table A7-2, between pharmacophore elements of the bound compound
[5] = Table A8-6, nearest protein atom in cell to the left

MASP-2 CCP2-SP, sequence (O00187 445-686): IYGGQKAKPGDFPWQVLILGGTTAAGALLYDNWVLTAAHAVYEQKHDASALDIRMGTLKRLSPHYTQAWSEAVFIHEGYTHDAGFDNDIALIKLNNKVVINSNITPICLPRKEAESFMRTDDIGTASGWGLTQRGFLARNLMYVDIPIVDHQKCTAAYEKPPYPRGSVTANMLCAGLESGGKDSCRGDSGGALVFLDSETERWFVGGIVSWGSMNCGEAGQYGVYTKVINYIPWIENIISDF
MASP-2 CCP2-SP, sequence (O00187 364-432 partner): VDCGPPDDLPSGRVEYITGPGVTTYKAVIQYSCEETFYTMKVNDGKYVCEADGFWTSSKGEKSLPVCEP

Cc1nc(N)ccc1CNC(=O)[C@H](C)NC(=O)[C@H]1C[C@H](Cc2ccccc2Br)CN1.O=C(O)C(F)(F)F.O=C(O)C(F)(F)F [1372_B]
Ligand-pharmacophore element distance, pharmacophore element C2: 0 | Ligand-pharmacophore element distance, pharmacophore element C3: 0.1 | Ligand-pharmacophore element distance, pharmacophore element C4: 0 | Ligand-pharmacophore element distance, pharmacophore element C5: 0 | Ligand-pharmacophore element distance, pharmacophore element C6: 1.46 | Ligand-pharmacophore element distance, pharmacophore element C7: 0 | Ligand-pharmacophore element distance, pharmacophore element CA1: 0.57 | Ligand-pharmacophore element distance, pharmacophore element CA2: 1.41 | Ligand-pharmacophore element distance, pharmacophore element CA3: 0 | Ligand-pharmacophore element distance, pharmacophore element CA4: 0 | Ligand-pharmacophore element distance, pharmacophore element CA5: 0 | Ligand-pharmacophore element distance, pharmacophore element CA6: 0 | d(C3,CA1) [1]: 2.85 | d(CA1,N1)2 [1]: 1.38 | d(CA1,O1) [1]: 4.37 | d(CA1,O2) [1]: 4.00 | d(H4,O1) [1]: 4.39 | d(H4,O2) [1]: 3.91 | d(O1,O2) [1]: 3.35 | d(N2,C6) [2]: 5.56 | d(N2,CA2) [2]: 6.02 | d(O2,H3) [2]: 2.23 | d(O2,N2) [2]: 2.63 | a(C3, CA1, O1) (Table A6-1 pharmacophore angle): 149.88 | a(CA1, O1, O2) (Table A6-1 pharmacophore angle): 107.52 | a(O1, O2, H4) (Table A6-1 pharmacophore angle): 132.88 | a(N1, CA1, O1) b) (Table A6-1 pharmacophore angle, Methyl-amino-pyridine compounds): 174.13 | a(O1, O2, H3) (Table A6-2 pharmacophore angle): 139.74 | a(O1, O2, N2) (Table A6-2 pharmacophore angle): 143.19 | a(O2, N2, C6) (Table A6-2 pharmacophore angle): 115.79 | a(O2, N2, CA2) (Table A6-2 pharmacophore angle): 157.88 | Pharmacophore torsion angle a(C3, CA1, O1, H4) [3]: 25.77 | Pharmacophore torsion angle a(H4, O1, O2, H3) [3]: 99.85 | Pharmacophore torsion angle a(H4, O1, O2, N2) [3]: 139.62 | Pharmacophore torsion angle a(N1, CA1, O1, H4) [3]: 4.96 | Pharmacophore torsion angle a(O1, H4, O2, CA1) [3]: −82.66 | Pharmacophore torsion angle a(O1, O2, N2, C6) [4]: 141.41 | Pharmacophore torsion angle a(O1, O2, N2, CA2) [4]: 109.73

CC(NC(=O)C1CC(Cc2ccccc2)CN1)C(=O)NCc1cnc2c(c1)c(Cl)cn2C.Cl.Cl (stereo not drawn) [1450_B]
Ligand-pharmacophore element distance, pharmacophore element C2: 0 | Ligand-pharmacophore element distance, pharmacophore element C3: 0 | Ligand-pharmacophore element distance, pharmacophore element C4: 0 | Ligand-pharmacophore element distance, pharmacophore element C5: 1.67 | Ligand-pharmacophore element distance, pharmacophore element C6: 0 | Ligand-pharmacophore element distance, pharmacophore element C7: 1.3 | Ligand-pharmacophore element distance, pharmacophore element CA1: 0.94 | Ligand-pharmacophore element distance, pharmacophore element CA2: 1.24 | Ligand-pharmacophore element distance, pharmacophore element CA3: 0 | Ligand-pharmacophore element distance, pharmacophore element CA4: 0 | Ligand-pharmacophore element distance, pharmacophore element CA5: 0 | Ligand-pharmacophore element distance, pharmacophore element CA6: 0 | d(CA1,C5) [1]: 3.41 | d(CA1,O1) [1]: 5.49 | d(CA1,O2) [1]: 4.57 | d(CA1,O4) [1]: 1.74 | d(H4,O1) [1]: 3.14 | d(H4,O2) [1]: 3.46 | d(O1,O2) [1]: 3.83 | d(N2,CA2) [2]: 6.07 | d(O2,H3) [2]: 2.32 | d(O2,N2) [2]: 2.67 | a(C5, CA1, O1) (Table A6-1 pharmacophore angle): 150.20 | a(CA1, O1, O2) (Table A6-1 pharmacophore angle): 98.92 | a(O1, CA1, C7) (Table A6-1 pharmacophore angle): 139.92 | a(O1, CA1, O4) (Table A6-1 pharmacophore angle): 66.73 | a(O1, O2, H4) (Table A6-1 pharmacophore angle): 109.15 | a(O1, O2, H3) (Table A6-2 pharmacophore angle): 123.50 | a(O1, O2, N2) (Table A6-2 pharmacophore angle): 138.89 | a(O2, N2, CA2) (Table A6-2 pharmacophore angle): 155.81 | Pharmacophore torsion angle a(C5, CA1, O1, H4) [3]: 13.21 | Pharmacophore torsion angle a(C7, CA1, O1, H4) [3]: −150.35 | Pharmacophore torsion angle a(H4, O1, O2, H3) [3]: −176.95 | Pharmacophore torsion angle a(H4, O1, O2, N2) [3]: 177.59 | Pharmacophore torsion angle a(O1, H4, O2, CA1) [3]: −91.88 | Pharmacophore torsion angle a(O1, O2, N2, CA2) [4]: 137.59

O=c1oc(-c2ccccc2[N+](=O)[O-])nc2ccccc12 [compound 14]
H-bond distance to MASP-2 ALA 469 atom N (Table A1 (H-Bonds), ALA 469 N): 3 | H-bond distance to MASP-2 HIS 483 atom NE2 (Table A1 (H-Bonds), HIS 483 NE2): 2.89 | van der Waals contact distance, MASP-2 ALA 468 atom C (Table A2-1): 3.69 | van der Waals contact distance, MASP-2 ALA 468 atom CA (Table A2-1): 3.52 | van der Waals contact distance, MASP-2 ALA 468 atom CB (Table A2-1): 3.52 | van der Waals contact distance, MASP-2 ALA 469 atom CA (Table A2-1): 3.89 | van der Waals contact distance, MASP-2 HIS 483 atom CD2 (Table A2-1): 3.72 | van der Waals contact distance, MASP-2 PHE 529 atom CE1 (Table A2-3): 3.21 | van der Waals contact distance, MASP-2 amino acid atom to compound atom (Table A2-7: SER 628 (CB, O, OG)): 3.65 | van der Waals contact distance, VAL 653 CB to compound atom (Table A2-11): 3.77 | van der Waals contact distance, TRP 655 C to compound atom (Table A2-12): 3.72 | van der Waals contact distance, TRP 655 CA to compound atom (Table A2-12): 3.69 | van der Waals contact distance, MASP-2 amino acid atom to compound atom (Table A2 section before Table A2-8): 3.89 | Ligand-pharmacophore element distance, pharmacophore element C2: 0 | Ligand-pharmacophore element distance, pharmacophore element C3: 0 | Ligand-pharmacophore element distance, pharmacophore element C4: 0 | Ligand-pharmacophore element distance, pharmacophore element C5: 0 | Ligand-pharmacophore element distance, pharmacophore element C6: 0 | Ligand-pharmacophore element distance, pharmacophore element C7: 0 | Ligand-pharmacophore element distance, pharmacophore element CA1: 1.47 | Ligand-pharmacophore element distance, pharmacophore element CA2: 0 | Ligand-pharmacophore element distance, pharmacophore element CA3: 0 | Ligand-pharmacophore element distance, pharmacophore element CA4: 0 | Ligand-pharmacophore element distance, pharmacophore element CA5: 0 | Ligand-pharmacophore element distance, pharmacophore element CA6: 1.68 | Ligand-pharmacophore element distance, pharmacophore element H1 (Table A4-2, element H1): 0 | Ligand-pharmacophore element distance, pharmacophore element H2 (Table A4-2, element H2): 4.66 | Ligand-pharmacophore element distance, pharmacophore element H3 (Table A4-2, element H3): 0 | Ligand-pharmacophore element distance, pharmacophore element H4 (Table A4-2, element H4): 1.82 | Ligand-pharmacophore element distance, pharmacophore element N1 (Table A4-2, element N1): 0 | Ligand-pharmacophore element distance, pharmacophore element N2 (Table A4-2, element N2): 0 | Ligand-pharmacophore element distance, pharmacophore element O1 (Table A4-2, element O1): 3.89 | Ligand-pharmacophore element distance, pharmacophore element O2 (Table A4-2, element O2): 0.46 | Ligand-pharmacophore element distance, pharmacophore element O3 (Table A4-2, element O3): 0 | Ligand-pharmacophore element distance, pharmacophore element O4 (Table A4-2, element O4): 0 | d(CA1,O1) [1]: 3.49 | d(CA1,O2) [1]: 3.51 | d(CA6,O1) [1]: 7.02 | d(CA6,O2) [1]: 3.51 | d(H4,O1) [1]: 3.02 | d(H4,O2) [1]: 3.13 | d(O1,O2) [1]: 5.28 | a(CA1, O1, O2) (Table A6-1 pharmacophore angle): 139.05 | a(O1, CA6, O2) (Table A6-1 pharmacophore angle): 75.74 | a(O1, O2, H4) (Table A6-1 pharmacophore angle): 61.95 | Pharmacophore torsion angle a(CA6, O1, H4, O2) [3]: 43.29 | Pharmacophore torsion angle a(O1, H4, O2, CA1) [3]: 38.29 | Pharmacophore protein distance to MET_658 (first MET_658 column) (Table A8-6, 6th residue column, nearest protein atom in cell to the left): 2.13 | Pharmacophore protein distance to MET_658 (second MET_658 column) (Table A8-6, 9th residue column, nearest protein atom in cell to the left): 3.80 | Pharmacophore protein distance to GLY_528 [5]: 3.51 | Pharmacophore protein distance to PHE_529 [5]: 2.77 | Pharmacophore protein distance to PRO_608 [5]: 4.32 | Pharmacophore protein distance to SER_611 [5]: 2.64 | Pharmacophore protein distance to TRP_655 (Table A8-6, pharmacophore elements C6, CA3, O3, H1, nearest protein atom in cell to the left): 3.76

Cc1c(/N=C/c2ccc(OC(=O)c3ccco3)cc2)c(=O)n(-c2ccccc2)n1C [compound 34]
van der Waals contact distance GLY 656 atom CA (Table A2-13, MASP-2 GLY 656 CA): 3.72
